This note sets out measurements from paper PMC11094368, “Modulating mycobacterial envelope integrity for antibiotic synergy with benzothiazoles” (Life Science Alliance, 2024).

Common to all, as to test: microbe, parasite or virus in culture
Experiment [1] relates to T1, Mycobacterium abscessus 144C.
T1 construct: 144C
Also noted: resazurin microtiter plate assay (REMA), growth inhibition in 7H9 ADS glycerol tyloxapol. To be noted: Mycobacteroides abscessus, 144C, 48 h, read-out: MIC50.

Experiment [2] has as its system T2, Mycobacterium abscessus RIVM.
T2 construct: RIVM
Details: resazurin microtiter plate assay (REMA), growth inhibition in 7H9 ADS glycerol tyloxapol. To be noted: Mycobacteroides abscessus, 48 h, read-out: MIC50.

Experiment [3] has as its system T3, Acinetobacter baumannii LMG01041.
T3 construct: LMG01041
Details: species or system E. coli, B. subtilis, K. pneumoniae, A. baumannii; bacterial growth inhibition in LB, twofold dilutions, OD600 tracking. To be noted: Acinetobacter baumannii, LMG01041, read-out: MIC50.

The subject of a further experiment is T4, Escherichia coli K12.
T4 construct: K12
Details: species or system E. coli, B. subtilis, K. pneumoniae, A. baumannii; bacterial growth inhibition in LB, twofold dilutions, OD600 tracking. To be noted: Escherichia coli, K12, read-out: MIC50.

A further experiment relates to T5, Bacillus subtilis 168.
T5 construct: 168
Details: species or system E. coli, B. subtilis, K. pneumoniae, A. baumannii; bacterial growth inhibition in LB, twofold dilutions, OD600 tracking. To be noted: Bacillus subtilis, 168, read-out: MIC50.

The subject of experiment [4] is T6, Acinetobacter baumannii 1757.
T6 construct: 1757
Also noted: species or system E. coli, B. subtilis, K. pneumoniae, A. baumannii; bacterial growth inhibition in LB, twofold dilutions, OD600 tracking. To be noted: Acinetobacter baumannii, 1757, read-out: MIC50.

Experiment [5] has as its system T7, Klebsiella pneumoniae LMG20218.
T7 construct: LMG20218
Also noted: species or system E. coli, B. subtilis, K. pneumoniae, A. baumannii; bacterial growth inhibition in LB, twofold dilutions, OD600 tracking. To be noted: Klebsiella pneumoniae, LMG20218, read-out: MIC50.

A further experiment deals with T8, M. marinum.
T8 construct: M^USA (wild type)
Details: Resazurin microtiter plate assay (REMA), fluorescence; MIC90 growth inhibition in HdB medium with Tween-80, 30 °C. To be noted: Mycobacterium marinum, 96 h; MIC90, HdB medium with Tween-80. Here is the method:
The resazurin microtiter plate assay (REMA) was used to determine minimal inhibitory concentrations (MIC) of the compound toward mycobacterial species ([Palomino et al, 2002]). Selected compounds or antibiotics were diluted in the bacterial growth medium as twofold serial dilutions in a 96-well plate. Bacteria were routinely grown until the mid-logarithmic phase, harvested by centrifugation (3,000g, 10 min), washed in PBS supplemented with 0.02% tyloxapol, resuspended in the growth medium, and added to the well plate containing compound dilutions, to achieve the final OD600 of 0.001 per well. […] When the color conversion of the dye was observed, the fluorescence was measured using a BioTek plate reader (Synergy H1), bottom reading mode, and excitation 560 nm/emission 590 nm. The MIC of compounds toward E. coli, Bacillus subtilis, K. pneumoniae, and A. baumannii was determined by tracking changes in the OD600. […] Plates were sealed and incubated at 37°C with 3 mm continuous linear shaking in a BioTek plate reader (Synergy H1), and the bacterial growth was tracked by measuring the OD600 every 15 min. […] Thus, we evaluated compounds from the benzothiazole library for their in vitro activity using the HdB medium with Tween-80 by REMA (Table S6).

Experiment [6] relates to T9, Mycobacterium smegmatis MC^2-155.
T9 construct: MC2-155
Also noted: resazurin microtiter plate assay (REMA), growth inhibition in 7H9 ADS glycerol tyloxapol. To be noted: Mycolicibacterium smegmatis, 24 h, read-out: MIC50.

As for `CCOc1ccc2nc(N(Cc3ccccc3)C(C)=O)sc2c1` [BT-08, N-Benzyl-N-(6-ethoxybenzo[d]thiazol-2-yl)acetamide], the IC50 (in [1]; in experiment [2]; in experiment [3]; in the experiment on Escherichia coli K12; in the experiment with Bacillus subtilis 168; in [4]) was over 40 µM throughout. For the same molecule, the IC50 in experiment [5] is over 40 µM.
For the molecule `CCOc1ccc2nc(N(Cc3ccccc3OC)C(C)=O)sc2c1` [BT-37], the MIC90 in the experiment on M. marinum was determined as 0.3 µM. Also, the IC50 (in experiment [1]; in experiment [2]; in experiment [6]; in experiment [3]; with Escherichia coli K12; in the experiment with Bacillus subtilis 168) was over 40 µM throughout. Moreover, the IC50 in [4] and in experiment [5] was over 40 µM each time.
